From article PMC3681751, “Identification of a Novel Antimicrobial Peptide from Human Hepatitis B Virus Core Protein Arginine-Rich Domain (ARD)” (PLoS Pathogens, 2013) come the findings set out here.

Read-outs that look alike come from different tables or passages of the source. Residues, ends and D or L forms follow the SMILES beside them.

For assay [1], the system named is K. pneumonia (ATCC 13884). The format is cell-based, Klebsiella pneumoniae.
Assay [2] relates to P. aeruginosa (ATCC 9027). The format is cell-based, Pseudomonas aeruginosa. Particulars: for MBC against P. aeruginosa: summary over the P. aeruginosa strains of Table 1 (ATCC 9027, ATCC 27853). Here is the method:
(§1) The antimicrobial activities of HBc ARD peptides were tested using a number of bacterial strains from ATCC, including Pseudomonas aeruginosa Migula strain (ATCC 27853, ampicillin-resistant), Pseudomonas aeruginosa Migula strain (ATCC 9027, ampicillin-resistant), Klebsiella pneumoniae strain (ATCC 17593), Escherichia coli strain (ATCC 25922), Staphylococcus aureus subsp. strain (ATCC 25923, methicillin-resistant), Staphylococcus aureus subsp. strain (ATCC 29213, methicillin-resistant), Staphylococcus aureus subsp. strain (ATCC 19636, methicillinresistant), and Candida albicans strain (ATCC 10231).
(§2) All peptides were purchased from Yao-Hong Biotechnology Inc. (Taipei, Taiwan). Vendors provided data of peptide characterizations, including HPLC and Mass (data not shown). Antimicrobial activity was determined as described with some modifications as detailed below. Bacteria were grown overnight in Mueller–Hinton broth (Difco) at 37°C, and during the mid-logarithmic phase, bacteria were diluted to 10^6 CFU (colony formation unit)/ml in phosphate buffer (10 mM sodium phosphate and 50 mM sodium chloride, pH 7.2). Peptides were serially diluted in the same buffer. Fifty microliter (µl) of bacteria was mixed with fifty µl of peptides at varying concentrations followed by incubation at 37°C for 3 hours without shaking. At the end of incubation, bacteria were placed on Mueller-Hinton broth agar plates, and allowed growth at 37°C overnight for measurement of minimal bactericidal concentration (MBC). […] All peptides were tested in triplicate.

Assay [3] relates to P. aeruginosa (ATCC 27853). Type of assay: cell-based, Pseudomonas aeruginosa. How it is done:
as §1, §2

In assay [4] the test system is E. coli (ATCC 25922). Type of assay: cell-based, Escherichia coli. Particulars: 3 h at 37°C in phosphate buffer pH 7.2; triplicate. How it is done: as §1, §2
Setting [5] is: 3 h at 37°C in phosphate buffer pH 7.2, triplicate.
The mark [6] stands for this setting: ampicillin-resistant strain, 3 h at 37°C in phosphate buffer pH 7.2, triplicate.

Regarding `C[C@@H](O)[C@H](NC(=O)[C@H](CCCNC(=N)N)NC(=O)[C@H](CCCNC(=N)N)NC(=O)[C@H](CCCNC(=N)N)NC(=O)[C@@H]1CCCN1C(=O)[C@H](CO)NC(=O)[C@H](CCCNC(=N)N)NC(=O)CN)C(=O)N1CCC[C@H]1C(=O)N[C@@H](CO)C(=O)N1CCC[C@H]1C(=O)N[C@@H](CCCNC(=N)N)C(=O)N[C@@H](CCCNC(=N)N)C(=O)N[C@@H](CCCNC(=N)N)C(=O)N[C@@H](CCCNC(=N)N)C(=O)N[C@@H](CO)C(=O)N[C@@H](CCC(N)=O)C(=O)N[C@@H](CO)C(=O)N1CCC[C@H]1C(=O)N[C@@H](CCCNC(=N)N)C(=O)N[C@@H](CCCNC(=N)N)C(=O)N[C@@H](CCCNC(=N)N)C(=O)N[C@@H](CCCNC(=N)N)C(=O)O` [HBc153-175] (H-GRSPRRRTPSPRRRRSQSPRRRR-OH; N-terminus and C-terminus assumed), the “Antimicrobial activity, MBC” value was 93.28 µg/mL in assay [1] (setting [5]); > 32 µM in assay [1] (ATCC 13884, 3 h, pH 7.2); 2 µM in assay [2] (ATCC 9027, 3 h, pH 7.2); 5.8 µg/mL in assay [2] (setting [6]); 2 µM in assay [3] (ATCC 27853, 3 h, pH 7.2); 5.8 µg/mL in assay [3] (setting [6]). Besides, the “Antimicrobial activity, MBC” value in assay [4] came to 46.64 µg/mL. Moreover, in assay [2], the “MBC against P. aeruginosa” value was “strong activity”.

Regarding `C[C@@H](O)[C@H](NC(=O)[C@H](CCCNC(=N)N)NC(=O)[C@H](CCCNC(=N)N)NC(=O)[C@H](CCCNC(=N)N)NC(=O)[C@@H]1CCCN1C(=O)[C@@H](N)CO)C(=O)N1CCC[C@H]1C(=O)N[C@@H](CO)C(=O)N1CCC[C@H]1C(=O)N[C@@H](CCCNC(=N)N)C(=O)N[C@@H](CCCNC(=N)N)C(=O)N[C@@H](CCCNC(=N)N)C(=O)N[C@@H](CCCNC(=N)N)C(=O)N[C@@H](CO)C(=O)N[C@@H](CCC(N)=O)C(=O)N[C@@H](CO)C(=O)N1CCC[C@H]1C(=O)N[C@@H](CCCNC(=N)N)C(=O)N[C@@H](CCCNC(=N)N)C(=O)N[C@@H](CCCNC(=N)N)C(=O)N[C@@H](CCCNC(=N)N)C(=O)O` [HBc155-175] (H-SPRRRTPSPRRRRSQSPRRRR-OH; N-terminus and C-terminus assumed), the “Antimicrobial activity, MBC” value in assay [1] (setting [5]) is > 86.46 µg/mL; in assay [1] (ATCC 13884, 3 h, pH 7.2), > 32 µM; in assay [2] (ATCC 9027, 3 h, pH 7.2), 2 µM; in assay [2] (setting [6]), 5.4 µg/mL; in assay [3] (ATCC 27853, 3 h, pH 7.2) it was 16 µM; in assay [3] (setting [6]), 43.23 µg/mL. For the same compound, the “Antimicrobial activity, MBC” value in assay [4] was > 86.46 µg/mL. For the same compound, the “MBC against P. aeruginosa” value in assay [2] is given as “strong activity”.

As to `C[C@@H](O)[C@H](NC(=O)[C@H](CCCNC(=N)N)NC(=O)[C@H](CCCNC(=N)N)NC(=O)[C@@H](N)CCCNC(=N)N)C(=O)N1CCC[C@H]1C(=O)N[C@@H](CO)C(=O)N1CCC[C@H]1C(=O)N[C@@H](CCCNC(=N)N)C(=O)N[C@@H](CCCNC(=N)N)C(=O)N[C@@H](CCCNC(=N)N)C(=O)N[C@@H](CCCNC(=N)N)C(=O)N[C@@H](CO)C(=O)N[C@@H](CCC(N)=O)C(=O)N[C@@H](CO)C(=O)N1CCC[C@H]1C(=O)N[C@@H](CCCNC(=N)N)C(=O)N[C@@H](CCCNC(=N)N)C(=O)N[C@@H](CCCNC(=N)N)C(=O)N[C@@H](CCCNC(=N)N)C(=O)O` [HBc157-175] (H-RRRTPSPRRRRSQSPRRRR-OH; N-terminus and C-terminus assumed), the “Antimicrobial activity, MBC” value was > 80.58 µg/mL in assay [1] (setting [5]); > 32 µM in assay [1] (ATCC 13884, 3 h, pH 7.2); 2 µM in assay [2] (ATCC 9027, 3 h, pH 7.2); > 32 µM in assay [3] (ATCC 27853, 3 h, pH 7.2); > 80.58 µg/mL in assay [3] (setting [6]); > 80.58 µg/mL in assay [4]. Besides, the “MBC against P. aeruginosa” value in assay [2] is on record as “strong activity”.

For the compound `C[C@@H](O)[C@H](NC(=O)[C@H](CCCNC(=N)N)NC(=O)[C@H](CCCNC(=N)N)NC(=O)[C@@H](N)CCCNC(=N)N)C(=O)N1CCC[C@H]1C(=O)N[C@@H](CO)C(=O)N1CCC[C@H]1C(=O)N[C@@H](CCCNC(=N)N)C(=O)N[C@@H](CCCNC(=N)N)C(=O)N[C@@H](CCCNC(=N)N)C(=O)N[C@@H](CCCNC(=N)N)C(=O)N[C@@H](CO)C(=O)N[C@@H](CCC(N)=O)C(=O)N[C@@H](CO)C(=O)N1CCC[C@H]1C(=O)N[C@@H](CCCNC(=N)N)C(=O)N[C@@H](CCCNC(=N)N)C(=O)N[C@@H](CCCNC(=N)N)C(=O)N[C@@H](CCCNC(=N)N)C(=O)N[C@@H](CO)C(=O)O` [HBc157-176] (H-RRRTPSPRRRRSQSPRRRRS-OH; N-terminus and C-terminus assumed), the “Antimicrobial activity, MBC” value in assay [1] (setting [5]) is > 83.36 µg/mL; in assay [1] (ATCC 13884, 3 h, pH 7.2) it was > 32 µM; in assay [2] (ATCC 9027, 3 h, pH 7.2) it was 2 µM; in assay [2] (setting [6]) it was 5.2 µg/mL; in assay [3] (ATCC 27853, 3 h, pH 7.2), 2 µM; in assay [3] (setting [6]), 5.2 µg/mL. The “Antimicrobial activity, MBC” value in assay [4] is > 83.36 µg/mL. For the same compound, in assay [2], the “MBC against P. aeruginosa” value was “strong activity”.

For `CC(C)[C@H](NC(=O)[C@@H](NC(=O)[C@@H](N)[C@@H](C)O)C(C)C)C(=O)N[C@@H](CCCNC(=N)N)C(=O)N[C@@H](CCCNC(=N)N)C(=O)N[C@@H](CCCNC(=N)N)C(=O)NCC(=O)N[C@@H](CCCNC(=N)N)C(=O)N[C@@H](CO)C(=O)N1CCC[C@H]1C(=O)N[C@@H](CCCNC(=N)N)C(=O)N[C@@H](CCCNC(=N)N)C(=O)N[C@@H](CCCNC(=N)N)C(=O)N[C@H](C(=O)N1CCC[C@H]1C(=O)N[C@@H](CO)C(=O)N1CCC[C@H]1C(=O)N[C@@H](CCCNC(=N)N)C(=O)N[C@@H](CCCNC(=N)N)C(=O)N[C@@H](CCCNC(=N)N)C(=O)N[C@@H](CCCNC(=N)N)C(=O)O)[C@@H](C)O` [HBc147-167] (H-TVVRRRGRSPRRRTPSPRRRR-OH; N-terminus and C-terminus assumed), the “Antimicrobial activity, MBC” value is 21.3 µg/mL in assay [1] (setting [5]); > 32 µM in assay [2] (ATCC 9027, 3 h, pH 7.2); > 85 µg/mL in assay [2] (setting [6]); > 32 µM in assay [3] (ATCC 27853, 3 h, pH 7.2); > 85 µg/mL in assay [3] (setting [6]); > 85 µg/mL in assay [4].
